# Source: patent publication US10800791B2, “Triazole ACC inhibitors and uses thereof” (Gilead Apollo, LLC, priority 2015, dated 2020)
# Where two headings read alike, the source gives them in different places.
# Legend:
# human (hACC2) = human (hACC2) (Homo sapiens, UniProt O00763); assay: In vitro ACC inhibition assay (ADP-Glo), hACC2; format: biochemical; details: 5 nM ACC2, 20 μM ATP, 20 μM acetyl-CoA
# Description: The detailed procedure is as follows. […] 10 μL ADP glo reagent was added. […] 20 μL kinase detection reagent was added.
# C. albicans = assay: Antifungal Activity Assay (broth microtiter MIC), C. albicans; format: cell-based, Candida albicans; details: Candida albicans, ATCC90028, 48 h, ATCC 90028, 3 replicates, MIC recorded at 48 h, read-out: MIC, C. albicans ATCC 90028
# Method in brief: (§1)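 MICs were scored by eye at 48 h relative to the growth control. Plates followed CLSI M27-A3, with Candida suspensions in RPMI 1640+MOPS giving a final 2.5×10^3 CFU/mL; the colonies came from Sabouraud agar grown overnight at 35 °C.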
# C. krusei = assay: Antifungal Activity Assay (broth microtiter MIC), C. krusei; format: cell-based, Candida krusei; details: Pichia kudriavzevii, ATCC6258, 48 h, ATCC 6258, 3 replicates, MIC recorded at 48 h, read-out: MIC, C. krusei ATCC 6258
# Method in brief: as §1
# C. parapsilosis = assay: Antifungal Activity Assay (broth microtiter MIC), C. parapsilosis; format: cell-based, Candida parapsilosis; details: Lodderomyces parapsilosis, ATCC22019, 48 h, ATCC 22019, 3 replicates, MIC recorded at 48 h, read-out: MIC, C. parapsilosis ATCC 22019
# Method in brief: as §1
# Botrtyis cinerea (Bc) = assay: Growth inhibition assay of fungal pathogens, Bc; format: cell-based; details: 48 h, Botrtyis cinerea; growth inhibition at 48 hours vs 2% DMSO control; read-out: Concentration at 90% Inhibition Bc
# Description: (§2) Compounds of the present invention were evaluated in a growth inhibition assay to determine the ability to control the growth of fungal pathogens, such as Botrtyis cinerea (Bc), Collectotrichum graminicola (Cg), Diplodia maydis (Dm), Fusarium moniliforme (Fm), Fusarium virguliforme (Fv), Phytophthora capsici (Pc), Rhizoctonia solani (Rs), and Septoria tritici (St).
# (§3) Compounds to be tested were dissolved in DMSO at 2.5 mg/ml to produce compound stock solutions (“stocks”). Stocks were diluted with DMSO by a five-fold dilution in a 96-well stock plate, and two sets of final concentrations of 50, 10, and 2 ppm or 2, 0.4, and 0.08 ppm were obtained in vitro. A set of positive controls was also prepared, with various concentrations of Soraphen (2, 0.4, and 0.08 ppm), Metalaxyl (1.1, 0.22, and 0.04 ppm), and Metconazole (2, 0.4, and 0.08 ppm or 0.2, 0.04, and 0.008 ppm) after the five-fold dilutions. Negative controls on each plate included 2% DMSO, water, and a blank (media+2% DMSO).
# (§4) Fungal spores were isolated from previously sub-cultured plates of Botrtyis cinerea (Bc), Collectotrichum graminicola (Cg), Diplodia maydis (Dm), Fusarium moniliforme (Fm), Fusarium virguliforme (Fv), Phytophthora capsici (Pc), and Septoria tritici (St). The isolated spores were diluted to individual concentrations with a 17% V8 liquid media. For Rhizoctonia solani (Rs) and Pythium irregulare, 1.5 mm mycelial plugs were used in place of spores and/4 Potato Dextrose Broth (PDB) was used for dilution. The spore concentrations and plug sizes were based on growth curves generated at 48 hours for each pathogen.
# (§5) In a second 96-well plate, the spores or mycelial plugs, media, diluted compound solutions, and controls were combined. Once the compound was added, a true final concentration of compound in each well was measured by an OD600 reading, which adjusted for any compound precipitation that might have occurred in the well. Plate readings were repeated at both 24 and 48 hours. The blank negative control was used as a background subtraction. Additional visual ratings were performed at both 24 and 48 hours for checking on precipitation and confirming efficacy. Visual and OD600 ratings of the compounds at 48 hours were compared to the 2% DMSO negative control, and the percent of pathogen growth inhibition was determined based on those values.
# [1] = test system: Collectotrichum graminicola (Cg); assay: Growth inhibition assay of fungal pathogens, Cg; format: cell-based; details: 48 h, Collectotrichum graminicola; growth inhibition at 48 hours vs 2% DMSO control; read-out: Concentration at 90% Inhibition Cg
# Description: as §2, §3, §4, §5
# Diplodia maydis (Dm) = assay: Growth inhibition assay of fungal pathogens, Dm; format: cell-based; details: Stenocarpella maydis, 48 h, Diplodia maydis; growth inhibition at 48 hours vs 2% DMSO control; read-out: Concentration at 90% Inhibition Dm
# Description: as §2, §3, §4, §5
# [2] = test system: Fusarium moniliforme (Fm); assay: Growth inhibition assay of fungal pathogens, Fm; format: cell-based; details: Fusarium verticillioides, 48 h, Fusarium moniliforme; growth inhibition at 48 hours vs 2% DMSO control; read-out: Concentration at 90% Inhibition Fm
# Description: as §2, §3, §4, §5
# [3] = test system: Fusarium virguliforme (Fv); assay: Growth inhibition assay of fungal pathogens, Fv; format: cell-based; details: 48 h, growth inhibition at 48 hours vs 2% DMSO control, read-out: Concentration at 90% Inhibition Fv
# Description: as §2, §3, §4, §5
# [4] = test system: Phytophthora capsici (Pc); assay: Growth inhibition assay of fungal pathogens, Pc; format: cell-based; details: 48 h, growth inhibition at 48 hours vs 2% DMSO control, read-out: Concentration at 90% Inhibition Pc
# Description: as §2, §3, §4, §5
# Rhizoctonia solani (Rs) = assay: Growth inhibition assay of fungal pathogens, Rs; format: cell-based; details: 48 h, mycelial plugs, growth inhibition at 48 hours vs 2% DMSO control, read-out: Concentration at 90% Inhibition Rs
# Septoria tritici (St) = assay: Growth inhibition assay of fungal pathogens, St; format: cell-based; details: Zymoseptoria tritici, 48 h, Septoria tritici; growth inhibition at 48 hours vs 2% DMSO control; read-out: Concentration at 90% Inhibition St
# Description: as §2, §3, §4, §5
# fungal (fACC2) = fungal (fACC2) (UniProt Q00955); details: read-out: fACC2 (in vitro ACC2 Inhibition Assay, IC50), ADP-Glo, 5 nM ACC2, 20 μM ATP, 20 μM acetyl-CoA
# Chain of fungal (fACC2) (Q00955 whole entry): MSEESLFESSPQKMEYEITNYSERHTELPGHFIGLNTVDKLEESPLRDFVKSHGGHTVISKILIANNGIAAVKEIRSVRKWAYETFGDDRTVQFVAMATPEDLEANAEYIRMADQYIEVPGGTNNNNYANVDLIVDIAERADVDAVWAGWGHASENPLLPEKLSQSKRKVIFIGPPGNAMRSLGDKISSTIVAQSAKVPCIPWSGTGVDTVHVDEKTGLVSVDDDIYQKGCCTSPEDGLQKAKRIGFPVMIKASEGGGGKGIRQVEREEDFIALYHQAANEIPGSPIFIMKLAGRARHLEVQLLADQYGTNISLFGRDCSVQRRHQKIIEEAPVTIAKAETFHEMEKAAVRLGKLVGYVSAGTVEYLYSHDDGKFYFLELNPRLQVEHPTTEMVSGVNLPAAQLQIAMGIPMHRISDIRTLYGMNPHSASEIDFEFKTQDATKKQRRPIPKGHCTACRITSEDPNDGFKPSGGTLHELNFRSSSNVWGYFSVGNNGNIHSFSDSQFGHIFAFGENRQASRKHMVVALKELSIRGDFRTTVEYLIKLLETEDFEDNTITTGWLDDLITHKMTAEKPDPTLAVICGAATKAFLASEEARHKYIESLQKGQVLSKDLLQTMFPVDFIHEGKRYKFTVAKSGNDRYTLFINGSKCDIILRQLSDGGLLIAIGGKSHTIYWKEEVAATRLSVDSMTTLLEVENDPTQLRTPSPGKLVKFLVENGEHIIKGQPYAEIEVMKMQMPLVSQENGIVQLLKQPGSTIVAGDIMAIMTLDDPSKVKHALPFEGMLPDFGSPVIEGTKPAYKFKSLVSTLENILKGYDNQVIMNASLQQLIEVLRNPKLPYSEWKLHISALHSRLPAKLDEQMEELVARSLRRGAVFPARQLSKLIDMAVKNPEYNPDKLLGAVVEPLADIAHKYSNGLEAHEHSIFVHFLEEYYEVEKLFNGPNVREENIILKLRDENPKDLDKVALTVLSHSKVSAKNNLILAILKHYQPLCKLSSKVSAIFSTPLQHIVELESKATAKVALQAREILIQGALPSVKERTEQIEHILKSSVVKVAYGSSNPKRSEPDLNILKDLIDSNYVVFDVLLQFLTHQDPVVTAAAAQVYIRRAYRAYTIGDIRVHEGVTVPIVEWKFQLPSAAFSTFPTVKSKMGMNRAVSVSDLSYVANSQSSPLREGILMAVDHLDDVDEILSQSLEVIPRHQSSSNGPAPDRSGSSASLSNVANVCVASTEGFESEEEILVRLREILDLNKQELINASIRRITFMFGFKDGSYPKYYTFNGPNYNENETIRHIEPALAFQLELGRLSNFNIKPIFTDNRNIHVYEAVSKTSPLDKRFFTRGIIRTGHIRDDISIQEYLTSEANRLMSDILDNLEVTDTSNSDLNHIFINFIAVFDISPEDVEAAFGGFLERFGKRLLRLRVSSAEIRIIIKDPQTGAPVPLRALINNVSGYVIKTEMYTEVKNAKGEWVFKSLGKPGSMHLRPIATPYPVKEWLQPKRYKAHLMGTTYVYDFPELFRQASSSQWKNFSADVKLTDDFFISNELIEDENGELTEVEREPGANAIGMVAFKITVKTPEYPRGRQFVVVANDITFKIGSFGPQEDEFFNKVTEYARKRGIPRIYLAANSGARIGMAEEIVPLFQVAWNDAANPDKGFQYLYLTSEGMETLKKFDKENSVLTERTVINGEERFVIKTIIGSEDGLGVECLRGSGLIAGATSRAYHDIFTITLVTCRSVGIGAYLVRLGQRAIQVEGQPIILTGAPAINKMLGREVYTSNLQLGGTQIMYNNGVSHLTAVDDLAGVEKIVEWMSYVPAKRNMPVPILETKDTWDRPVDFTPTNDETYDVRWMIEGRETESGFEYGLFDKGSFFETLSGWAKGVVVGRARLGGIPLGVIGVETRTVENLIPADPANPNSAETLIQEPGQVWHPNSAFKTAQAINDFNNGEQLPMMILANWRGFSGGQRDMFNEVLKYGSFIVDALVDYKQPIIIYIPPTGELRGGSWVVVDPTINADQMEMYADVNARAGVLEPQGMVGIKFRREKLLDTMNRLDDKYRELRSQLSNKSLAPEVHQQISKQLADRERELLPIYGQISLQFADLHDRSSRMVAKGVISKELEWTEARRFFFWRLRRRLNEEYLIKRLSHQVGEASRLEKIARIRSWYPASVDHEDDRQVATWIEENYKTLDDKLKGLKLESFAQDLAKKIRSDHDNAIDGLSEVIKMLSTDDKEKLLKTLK
# Chain of human (hACC2) (O00763 whole entry): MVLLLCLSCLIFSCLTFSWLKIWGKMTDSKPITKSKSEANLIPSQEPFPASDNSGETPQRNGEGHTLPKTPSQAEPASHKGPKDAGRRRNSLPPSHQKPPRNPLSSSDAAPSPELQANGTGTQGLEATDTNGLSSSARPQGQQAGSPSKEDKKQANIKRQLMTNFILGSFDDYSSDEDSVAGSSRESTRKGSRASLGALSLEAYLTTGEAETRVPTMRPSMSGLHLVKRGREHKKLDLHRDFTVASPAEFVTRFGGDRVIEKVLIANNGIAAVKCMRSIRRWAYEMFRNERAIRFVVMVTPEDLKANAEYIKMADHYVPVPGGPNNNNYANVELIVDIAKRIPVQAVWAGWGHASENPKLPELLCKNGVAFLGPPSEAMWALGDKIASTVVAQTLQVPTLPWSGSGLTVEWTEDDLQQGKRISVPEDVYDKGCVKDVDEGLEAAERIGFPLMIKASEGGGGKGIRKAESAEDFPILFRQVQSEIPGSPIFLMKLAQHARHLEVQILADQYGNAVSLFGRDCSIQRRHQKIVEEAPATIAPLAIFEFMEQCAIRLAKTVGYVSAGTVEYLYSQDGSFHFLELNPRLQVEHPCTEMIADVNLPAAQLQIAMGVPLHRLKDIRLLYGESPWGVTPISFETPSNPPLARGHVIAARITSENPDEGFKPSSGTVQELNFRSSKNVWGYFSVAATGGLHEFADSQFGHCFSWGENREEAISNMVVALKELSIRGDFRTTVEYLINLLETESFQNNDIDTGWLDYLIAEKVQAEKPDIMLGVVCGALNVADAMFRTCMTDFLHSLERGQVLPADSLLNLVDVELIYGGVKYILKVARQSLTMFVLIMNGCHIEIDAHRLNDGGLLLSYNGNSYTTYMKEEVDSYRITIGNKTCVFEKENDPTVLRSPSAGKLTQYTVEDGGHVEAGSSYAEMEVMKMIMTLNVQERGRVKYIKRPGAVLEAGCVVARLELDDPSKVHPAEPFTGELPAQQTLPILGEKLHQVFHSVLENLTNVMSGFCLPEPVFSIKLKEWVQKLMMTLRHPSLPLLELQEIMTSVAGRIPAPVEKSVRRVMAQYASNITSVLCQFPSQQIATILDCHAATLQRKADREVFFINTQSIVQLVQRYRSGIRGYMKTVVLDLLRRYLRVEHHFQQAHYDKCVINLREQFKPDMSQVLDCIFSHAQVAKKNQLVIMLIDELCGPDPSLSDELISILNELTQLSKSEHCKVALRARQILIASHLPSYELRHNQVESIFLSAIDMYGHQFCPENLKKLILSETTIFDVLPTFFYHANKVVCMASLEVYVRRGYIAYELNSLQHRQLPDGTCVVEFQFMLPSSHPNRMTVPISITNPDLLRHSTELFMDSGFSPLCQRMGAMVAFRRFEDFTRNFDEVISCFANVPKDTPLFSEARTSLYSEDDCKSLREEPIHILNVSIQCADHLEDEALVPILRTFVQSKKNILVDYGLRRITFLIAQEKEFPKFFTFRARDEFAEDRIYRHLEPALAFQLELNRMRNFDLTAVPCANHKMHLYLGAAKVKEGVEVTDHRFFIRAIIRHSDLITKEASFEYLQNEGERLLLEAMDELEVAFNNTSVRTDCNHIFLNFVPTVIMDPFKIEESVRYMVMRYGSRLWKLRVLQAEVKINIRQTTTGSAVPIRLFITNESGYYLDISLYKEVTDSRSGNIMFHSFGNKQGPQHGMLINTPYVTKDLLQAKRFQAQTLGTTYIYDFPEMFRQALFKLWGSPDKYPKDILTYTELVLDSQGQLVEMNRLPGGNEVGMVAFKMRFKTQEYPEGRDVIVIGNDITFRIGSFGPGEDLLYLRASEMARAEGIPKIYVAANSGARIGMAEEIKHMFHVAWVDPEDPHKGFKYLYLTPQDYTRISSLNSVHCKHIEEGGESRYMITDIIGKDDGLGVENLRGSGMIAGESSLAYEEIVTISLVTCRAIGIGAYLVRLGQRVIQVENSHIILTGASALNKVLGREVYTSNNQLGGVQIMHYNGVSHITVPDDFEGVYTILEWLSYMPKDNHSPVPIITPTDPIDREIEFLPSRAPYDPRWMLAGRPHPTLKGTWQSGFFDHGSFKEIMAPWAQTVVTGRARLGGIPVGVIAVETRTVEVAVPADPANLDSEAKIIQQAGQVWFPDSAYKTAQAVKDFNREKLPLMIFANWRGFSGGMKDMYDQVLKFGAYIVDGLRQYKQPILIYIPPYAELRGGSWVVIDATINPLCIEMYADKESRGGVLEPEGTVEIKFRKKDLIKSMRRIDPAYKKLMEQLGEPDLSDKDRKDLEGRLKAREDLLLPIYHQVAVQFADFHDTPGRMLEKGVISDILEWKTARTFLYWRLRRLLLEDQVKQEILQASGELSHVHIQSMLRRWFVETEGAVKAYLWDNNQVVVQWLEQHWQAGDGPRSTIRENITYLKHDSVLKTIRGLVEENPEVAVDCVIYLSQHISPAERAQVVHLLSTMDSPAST
Compound,IC50 (human (hACC2); Table 2a) [nM],"IC50 (human (hACC2); Table 2b, additional results) [nM]",MIC (C. albicans; Table 3a) [µg/mL],MIC (C. albicans; Table 3b (additional results)) [µg/mL],MIC (C. krusei; Table 3a) [µg/mL],MIC (C. krusei; Table 3b (additional results)) [µg/mL],MIC (C. parapsilosis; Table 3a) [µg/mL],MIC (C. parapsilosis; Table 3b (additional results)) [µg/mL],IC90 (Botrtyis cinerea (Bc)) [µg/mL],IC90 [1] [µg/mL],IC90 (Diplodia maydis (Dm)) [µg/mL],IC90 [2] [µg/mL],IC90 [3] [µg/mL],IC90 [4] [µg/mL],IC90 (Rhizoctonia solani (Rs)) [µg/mL],IC90 (Septoria tritici (St)) [µg/mL],IC50 (fungal (fACC2); Table 2a) [nM],"IC50 (fungal (fACC2); Table 2b, additional results) [nM]"
CCNC(=O)C(C)(C)n1c(=O)c2c(C)c(-n3nccn3)sc2n(C[C@H](OCCC#N)c2cc(F)ccc2OC)c1=O [Compound I-140],5 to 10,5 to 10,1.1 to 2,2.01 to 4,0.25 to 1,2.01 to 4,2.1 to 4,1.01 to 2,0.4,0.4,0.4,0.08,0.4,> 50,0.08,> 50,1 to 5,1 to 5
CNC(=O)C(C)(C)n1c(=O)c2c(C)c(-n3nccn3)sc2n(C[C@H](OCCC#N)c2cc(F)ccc2OC)c1=O [Compound I-141],5 to 10,5 to 10,2.1 to 4,> 4.01,2.1 to 4,2.01 to 4,2.1 to 4,2.01 to 4,2,10,2,0.08,2,> 50,0.08,> 50,1 to 5,1 to 5
CCNC(=O)C(C)(C)n1c(=O)c2c(C)c(-n3nccn3)sc2n(C[C@H](OCCC#N)c2ccccc2OC)c1=O [Compound I-142],1 to 5,1 to 5,2.1 to 4,2.01 to 4,1.1 to 2,2.01 to 4,2.1 to 4,1.01 to 2,0.4,2,2,0.4,0.4,> 50,0.08,> 50,1 to 5,1 to 5
CNC(=O)C(C)(C)n1c(=O)c2c(C)c(-n3nccn3)sc2n(C[C@H](OCCC#N)c2ccccc2OC)c1=O [Compound I-143],5 to 10,5 to 10,2.1 to 4,2.01 to 4,2.1 to 4,2.01 to 4,2.1 to 4,1.01 to 2,2,> 50,10,0.08,10,> 50,0.08,> 50,1 to 5,1 to 5
